# Results reported in US6825230B2, “Spiro and dispiro 1,2,4-trixolane antimalarials” (Medicines for Malaria Venture MMV, priority 2002, dated 2004).
# Like-named read-outs stand apart in the source and are kept apart here.
# Experiments:
# [1] = tested on: ANKA strain of P. berghei; test: Single dose STI in vivo screen in infected mice; parameters: species or system Plasmodium berghei; conditions: for Survival (days) 10 mg/kg po: single 10 mg/kg po in 3% ethanol and 7% Tween 80; for Survival (days) 10 mg/kg po / Survival (days) 10 mg/kg SSV po / Survival (days) 10 mg/kg sc: untreated 6-7 days; for Activity (%) 10 mg/kg po: single 10 mg/kg po in 3% ethanol and 7% Tween 80 on day 1 post-infection; for Activity (%) 10 mg/kg po / Activity (%) 10 mg/kg SSV po / Activity (%) 10 mg/kg sc: percent reduction in parasitemia on day 3; for Survival (days) 10 mg/kg SSV po: single 10 mg/kg po in SSV; for Activity (%) 10 mg/kg SSV po: single 10 mg/kg po in standard suspending vehicle (SSV) on day 1 post-infection; for Survival (days) 10 mg/kg sc: single 10 mg/kg sc in 3% ethanol and 7% Tween 80; for Activity (%) 10 mg/kg sc: single 10 mg/kg sc in 3% ethanol and 7% Tween 80 on day 1 post-infection
# [2] = tested on: chloroquine-resistant K1 strain of P. falciparum; test: In vitro antimalarial semiautomated microdilution assay ([3H]-hypoxanthine incorporation), K1 strain; type: cell-based, Plasmodium falciparum; conditions: for IC50: Plasmodium falciparum
# Procedure, shortened: (§1)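 IC50 values come from Logit regression of [3H]-hypoxanthine uptake data. Parasites were intraerythrocytic P. falciparum forms taken from asynchronous stock cultures and tested by semiautomated microdilution.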
# [3] = tested on: chloroquine-sensitive NF54 strain of P. falciparum; test: In vitro antimalarial semiautomated microdilution assay ([3H]-hypoxanthine incorporation), NF54 strain; type: cell-based, Plasmodium falciparum; conditions: for IC50: Plasmodium falciparum
# Procedure, shortened: as §1
# [4] = tested on: Schistosoma mansoni adult worms (49-day-old); test: Effect on adult schistosomes (49-day-old) in infected mice; type: in vivo; conditions: single 400 mg/kg per os; for % reduction of adult worms growth at day 49 after per os application of 400 mg/kg, TWR (%): 49-day-old adults, total worm reduction rate; for Adult worms day 49, per os 400 mg/kg, DEAD WORM (%): percentage of dead worm in the liver
# Description: Mice were infected with 100 Schistosoma mansoni cercariae on day 49 post-treatment. Each group was treated per os with OZ compounds at single doses of 200, 400, and 600 mg/kg. Untreated mice served as the control. All groups were killed 4 weeks after treatment and the liver and intestine were removed and separated. The liver and intestine were compressed and alive male and female worms could be seen and counted.
# [5] = K1, 72 h, read-out: IC50 (ng/ml) K1, chloroquine-resistant K1 strain, 72 h incubation
# [6] = NF54, 72 h, read-out: IC50 (ng/ml) NF54, chloroquine-sensitive NF54 strain, 72 h incubation
# [7] = chloroquine-resistant K1 strain, 72 h incubation, read-out: IC50 (ng/ml) K1
# [8] = chloroquine-sensitive NF54 strain, 72 h incubation, read-out: IC50 (ng/ml) NF54
# [9] = chloroquine-sensitive NF54 strain, 72 h incubation
SMILES,Survival (days) 10 mg/kg po [1],Activity (%) 10 mg/kg po [1],Survival (days) 10 mg/kg SSV po [1],Activity (%) 10 mg/kg SSV po [1],Survival (days) 10 mg/kg sc [1],Activity (%) 10 mg/kg sc [1],"IC50 [2, 5]","IC50 [3, 6]","% reduction of adult worms growth at day 49 after per os application of 400 mg/kg, TWR (%) [4]","Adult worms day 49, per os 400 mg/kg, DEAD WORM (%) [4]",further results
O=C(C[C@H]1CC[C@]2(CC1)OOC1(O2)C2CC3CC(C2)CC1C3)N1CCOCC1 (stereo partly shown) [OZ189],9.3 days,95%,9.0 days,99.79%,10.7 days,98%,1.7 ng/mL,3 ng/mL,0%,30%,
CCN(CC)CC[C@H]1CC[C@]2(CC1)OOC1(O2)C2CC3CC(C2)CC1C3 (stereo partly shown) [OZ126],7.0 days,55%,6.7 days,72%,8.5 days,99.44%,,,0%,9%,"IC50 [2, 7]: 0.2 ng/mL; IC50 [3, 8]: 0.5 ng/mL"
"OC12CC3CC(C1)C1(OOC4(CCC5(CC4)OCCO5)O1)C(C3)C2 (stereo not shown) [OZ153, 5-Hydroxyadamantane-2-spiro-3′-1′,2′,4′,9′,12′-pentaoxadispiro[4.2.4.2]tetradecane]",6.3 days,,,,,,,,,no dead,"Activity (%) 10 mg/kg po ([1]; 10 mg/kg): 15%; Survival (days) 10 mg/kg SSV po ([1]; 10 mg/kg): 7.0 days; Activity (%) 10 mg/kg SSV po ([1]; 10 mg/kg): 23%; Survival (days) 10 mg/kg sc ([1]; 10 mg/kg): 6.3 days; Activity (%) 10 mg/kg sc ([1]; 10 mg/kg): 20%; IC50 (ng/ml) K1 ([2]; chloroquine-resistant K1 strain, 72 h incubation): 7.7 ng/mL; IC50 (ng/ml) NF54 [3, 9]: 19 ng/mL"
NC(=O)OC1CCC2(CC1)OOC1(O2)C2CC3CC(C2)CC1C3 (stereo not shown) [OZ107],6.3 days,70%,6.3 days,32%,8.0 days,99.74%,1 ng/mL,0.3 ng/mL,26%,4%,
"O=[N+]([O-])c1cccc(C2(c3cccc([N+](=O)[O-])c3)OOC3(O2)C2CC4CC(C2)CC3C4)c1 (stereo not shown) [OZ105, Adamantane-2-spiro-3′-5′,5′-bis(3′-nitrophenyl)-1′,2′,4′-trioxolane]",5.7 days,16%,5.7 days,0%,6.3 days,28%,5.4 ng/mL,,8%,0%,
"C1=C(c2ccccc2)CCC2(C1)OOC1(O2)C2CC3CC(C2)CC1C3 (stereo not shown) [OZ226, Adamantane-2-spiro-3′-8′-phenyl-1′,2′,4′-trioxaspiro[4.5]dec-7′-ene]",5.0 days,0%,5.3 days,0%,11.0 days,99.92%,4 ng/mL,4 ng/mL,52%,0%,
"O=C(OC[C@H]1CC[C@]2(CC1)OOC1(O2)C2CC3CC(C2)CC1C3)N1CCN(c2ccccc2)CC1 (stereo partly drawn) [OZ148, cis-Adamantane-2-spiro-3′-1′,2′,4′-trioxaspiro[4.5]decane-8′-methyl 4-phenylpiperazine-1-carboxylate]",7.3 days,38%,7.7 days,58%,6.3 days,21%,,,25%,0%,"IC50 [2, 7]: 17 ng/mL; IC50 [3, 8]: 16 ng/mL"
"O=C1COC2(CCC3(CC2)OOC2(O3)C3CC4CC(C3)CC2C4)OC1 (stereo not shown) [OZ130, Adamantane-2-spiro-3′-11′-oxo-1′,2′,4′,9′,13′-pentaoxadispiro[4.2.5.2]pentadecane]",9.0 days,98.8%,8.0 days,98.9%,7.3 days,98.6%,0.62 ng/mL,0.94 ng/mL,0%,8%,
CC1(C)COC(c2ccc([C@H]3CC[C@]4(CC3)OOC3(O4)C4CC5CC(C4)CC3C5)cc2)=N1 (stereo partly shown) [OZ154],,,,,,,5 ng/mL,,58%,0%,"Survival (days) 10 mg/kg po ([1]; 10 mg/kg): 14.7 days; Activity (%) 10 mg/kg po ([1]; 10 mg/kg): 99.74%; Survival (days) 10 mg/kg SSV po ([1]; 10 mg/kg): 8.7 days; Activity (%) 10 mg/kg SSV po ([1]; 10 mg/kg): 81%; Survival (days) 10 mg/kg sc ([1]; 10 mg/kg): 7.7 days; Activity (%) 10 mg/kg sc ([1]; 10 mg/kg): 59%; IC50 (ng/ml) NF54 [3, 9]: 6.1 ng/mL"
O=C([C@H]1CC[C@]2(CC1)OOC1(O2)C2CC3CC(C2)CC1C3)N1CCN(c2ccccc2)CC1 (stereo partly shown) [OZ140],6.0 days,0%,6.3 days,8%,7.0 days,60%,5.9 ng/mL,8.2 ng/mL,0%,3%,
O=C(O)C1CCC2(CC1)OOC1(O2)C2CC3CC(C2)CC1C3 (stereo not shown) [OZ72],,,,,,,,,0%,,"Adult worms day 49, per os 400 mg/kg, DEAD WORM (%) ([4]; listed as OZ 72): 10%"
